MIC data for five molecules are collected here from ChEMBL document CHEMBL5143581, “Design, synthesis and molecular docking studies of imidazole and benzimidazole linked ethionamide derivatives as inhibitors of InhA and antituberculosis agents” (Bioorg Med Chem Lett, 2022).

Structures are written as SMILES. In brackets after ≈: the same amount, converted by molar mass.

This test has as its system Mycobacterium tuberculosis. Kind of test: Antimycobacterial activity against InhA overexpressing Mycobacterium tuberculosis InhA-OE. Type of test: functional.

A word on the MIC: it is the lowest concentration found to suppress growth. A low value points to a more susceptible organism. Take `COc1ccc2c(c1)nc(NC(=O)c1cc(C(N)=S)ccn1)n2C`: it took 0.72 µM (≈ 0.246 µg/mL) to inhibit growth (MIC). Consider `Cn1c(NC(=O)c2cc(C(N)=S)ccn2)nc2cc(O)ccc21`, for which the lowest concentration to inhibit growth (MIC) was 0.54 µM (≈ 0.177 µg/mL).

The molecule `Cn1cc(O)nc1NC(=O)c1cc(C(N)=S)ccn1` showed a minimal inhibitory concentration (MIC) of 1.99 µM (≈ 0.552 µg/mL). For `Cn1cc(C#N)nc1NC(=O)c1cc(C(N)=S)ccn1`, the lowest concentration to inhibit growth (MIC) was 2.53 µM (≈ 0.724 µg/mL).

Consider `NNC(=O)c1ccncc1` [ISONIAZID], for which the MIC was 0.74 µM (≈ 0.101 µg/mL).
